Results: ChEMBL document CHEMBL1139672, “1,2,3,4-Tetrahydroisoquinolinyl sulfamic acids as phosphatase PTP1B inhibitors” (Bioorg Med Chem Lett, 2006)

How the values were obtained:
[1] = biological target: Receptor-type tyrosine-protein phosphatase beta (Homo sapiens, UniProt P23467); assay: Inhibition of HPTP beta
[2] = biological target: T1, Receptor-type tyrosine-protein phosphatase C (Homo sapiens, UniProt P08575); assay: Inhibition of CD45
T1 sequence (P08575 whole entry): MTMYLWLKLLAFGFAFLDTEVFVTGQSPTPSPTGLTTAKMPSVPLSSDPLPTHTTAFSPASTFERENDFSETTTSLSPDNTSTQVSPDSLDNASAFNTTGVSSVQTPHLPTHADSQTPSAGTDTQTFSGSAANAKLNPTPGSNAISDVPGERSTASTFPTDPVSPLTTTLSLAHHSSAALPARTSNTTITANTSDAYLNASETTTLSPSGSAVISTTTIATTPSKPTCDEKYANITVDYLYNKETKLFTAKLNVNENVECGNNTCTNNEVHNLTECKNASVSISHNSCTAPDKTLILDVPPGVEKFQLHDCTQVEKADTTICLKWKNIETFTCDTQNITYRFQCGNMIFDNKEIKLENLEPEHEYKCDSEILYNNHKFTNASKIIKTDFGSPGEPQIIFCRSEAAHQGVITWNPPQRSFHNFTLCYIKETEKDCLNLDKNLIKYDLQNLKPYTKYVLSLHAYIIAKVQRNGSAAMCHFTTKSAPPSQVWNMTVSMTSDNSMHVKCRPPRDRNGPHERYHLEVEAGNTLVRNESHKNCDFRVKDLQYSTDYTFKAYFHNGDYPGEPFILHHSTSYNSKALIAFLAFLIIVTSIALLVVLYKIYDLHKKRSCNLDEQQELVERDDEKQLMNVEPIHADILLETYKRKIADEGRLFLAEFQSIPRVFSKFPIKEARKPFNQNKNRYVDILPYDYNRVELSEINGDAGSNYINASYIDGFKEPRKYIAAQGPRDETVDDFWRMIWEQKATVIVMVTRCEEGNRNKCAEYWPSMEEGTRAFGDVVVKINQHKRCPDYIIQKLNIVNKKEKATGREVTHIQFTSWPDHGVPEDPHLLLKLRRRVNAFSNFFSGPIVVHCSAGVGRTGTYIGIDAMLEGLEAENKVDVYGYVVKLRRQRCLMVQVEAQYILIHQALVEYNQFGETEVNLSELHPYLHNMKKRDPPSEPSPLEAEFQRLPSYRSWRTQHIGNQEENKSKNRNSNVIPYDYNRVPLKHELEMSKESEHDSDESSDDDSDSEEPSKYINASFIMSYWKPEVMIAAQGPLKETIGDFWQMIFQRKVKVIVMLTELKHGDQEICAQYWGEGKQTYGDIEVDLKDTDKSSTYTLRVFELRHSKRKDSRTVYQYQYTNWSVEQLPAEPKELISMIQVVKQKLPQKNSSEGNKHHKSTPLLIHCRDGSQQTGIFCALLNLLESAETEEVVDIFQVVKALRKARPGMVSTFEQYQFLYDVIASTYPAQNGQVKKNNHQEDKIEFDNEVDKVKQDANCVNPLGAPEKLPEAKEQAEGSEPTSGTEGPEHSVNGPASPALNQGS

[3] = biological target: T2, Tyrosine-protein phosphatase non-receptor type 2 (Homo sapiens, UniProt P17706); assay: Inhibition of TCPTP
T2 sequence (P17706 whole entry): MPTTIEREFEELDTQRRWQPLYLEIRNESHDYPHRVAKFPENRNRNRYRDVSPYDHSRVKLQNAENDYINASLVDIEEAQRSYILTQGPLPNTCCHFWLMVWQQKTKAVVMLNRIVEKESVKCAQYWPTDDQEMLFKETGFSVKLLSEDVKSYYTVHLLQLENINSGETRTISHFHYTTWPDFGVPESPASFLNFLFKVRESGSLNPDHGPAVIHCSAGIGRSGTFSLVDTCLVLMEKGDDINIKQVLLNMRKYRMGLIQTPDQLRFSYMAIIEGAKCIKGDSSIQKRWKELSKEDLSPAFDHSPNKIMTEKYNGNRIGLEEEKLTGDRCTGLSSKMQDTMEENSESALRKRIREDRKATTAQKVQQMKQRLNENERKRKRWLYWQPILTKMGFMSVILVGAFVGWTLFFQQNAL

[4] = biological target: Tyrosine-protein phosphatase non-receptor type 6 (Homo sapiens, UniProt P29350); assay: Inhibition of SHP1
[5] = biological target: T2, Tyrosine-protein phosphatase non-receptor type 2; assay: Inhibition of TC-PTP38
[6] = Inhibition of STP1
[7] = biological target: Dual specificity protein phosphatase 3 (Homo sapiens, UniProt P51452); assay: Inhibition of VHR
[8] = biological target: T3, Low molecular weight phosphotyrosine protein phosphatase (Homo sapiens, UniProt P24666); assay: Inhibition of HCPTPA
T3 sequence (P24666 whole entry): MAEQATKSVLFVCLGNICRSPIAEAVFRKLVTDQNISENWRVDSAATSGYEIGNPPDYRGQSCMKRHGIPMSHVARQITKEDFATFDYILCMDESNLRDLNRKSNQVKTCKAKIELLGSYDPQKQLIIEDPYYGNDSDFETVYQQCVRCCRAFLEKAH

[9] = biological target: Receptor-type tyrosine-protein phosphatase mu (Homo sapiens, UniProt P28827); assay: Inhibition of HPTP mu
[10] = biological target: Receptor-type tyrosine-protein phosphatase epsilon (Homo sapiens, UniProt P23469); assay: Inhibition of HPTP epsilon
[11] = biological target: Receptor-type tyrosine-protein phosphatase F (Homo sapiens, UniProt P10586); assay: Inhibition of LAR
Chain of Receptor-type tyrosine-protein phosphatase F (P10586 whole entry): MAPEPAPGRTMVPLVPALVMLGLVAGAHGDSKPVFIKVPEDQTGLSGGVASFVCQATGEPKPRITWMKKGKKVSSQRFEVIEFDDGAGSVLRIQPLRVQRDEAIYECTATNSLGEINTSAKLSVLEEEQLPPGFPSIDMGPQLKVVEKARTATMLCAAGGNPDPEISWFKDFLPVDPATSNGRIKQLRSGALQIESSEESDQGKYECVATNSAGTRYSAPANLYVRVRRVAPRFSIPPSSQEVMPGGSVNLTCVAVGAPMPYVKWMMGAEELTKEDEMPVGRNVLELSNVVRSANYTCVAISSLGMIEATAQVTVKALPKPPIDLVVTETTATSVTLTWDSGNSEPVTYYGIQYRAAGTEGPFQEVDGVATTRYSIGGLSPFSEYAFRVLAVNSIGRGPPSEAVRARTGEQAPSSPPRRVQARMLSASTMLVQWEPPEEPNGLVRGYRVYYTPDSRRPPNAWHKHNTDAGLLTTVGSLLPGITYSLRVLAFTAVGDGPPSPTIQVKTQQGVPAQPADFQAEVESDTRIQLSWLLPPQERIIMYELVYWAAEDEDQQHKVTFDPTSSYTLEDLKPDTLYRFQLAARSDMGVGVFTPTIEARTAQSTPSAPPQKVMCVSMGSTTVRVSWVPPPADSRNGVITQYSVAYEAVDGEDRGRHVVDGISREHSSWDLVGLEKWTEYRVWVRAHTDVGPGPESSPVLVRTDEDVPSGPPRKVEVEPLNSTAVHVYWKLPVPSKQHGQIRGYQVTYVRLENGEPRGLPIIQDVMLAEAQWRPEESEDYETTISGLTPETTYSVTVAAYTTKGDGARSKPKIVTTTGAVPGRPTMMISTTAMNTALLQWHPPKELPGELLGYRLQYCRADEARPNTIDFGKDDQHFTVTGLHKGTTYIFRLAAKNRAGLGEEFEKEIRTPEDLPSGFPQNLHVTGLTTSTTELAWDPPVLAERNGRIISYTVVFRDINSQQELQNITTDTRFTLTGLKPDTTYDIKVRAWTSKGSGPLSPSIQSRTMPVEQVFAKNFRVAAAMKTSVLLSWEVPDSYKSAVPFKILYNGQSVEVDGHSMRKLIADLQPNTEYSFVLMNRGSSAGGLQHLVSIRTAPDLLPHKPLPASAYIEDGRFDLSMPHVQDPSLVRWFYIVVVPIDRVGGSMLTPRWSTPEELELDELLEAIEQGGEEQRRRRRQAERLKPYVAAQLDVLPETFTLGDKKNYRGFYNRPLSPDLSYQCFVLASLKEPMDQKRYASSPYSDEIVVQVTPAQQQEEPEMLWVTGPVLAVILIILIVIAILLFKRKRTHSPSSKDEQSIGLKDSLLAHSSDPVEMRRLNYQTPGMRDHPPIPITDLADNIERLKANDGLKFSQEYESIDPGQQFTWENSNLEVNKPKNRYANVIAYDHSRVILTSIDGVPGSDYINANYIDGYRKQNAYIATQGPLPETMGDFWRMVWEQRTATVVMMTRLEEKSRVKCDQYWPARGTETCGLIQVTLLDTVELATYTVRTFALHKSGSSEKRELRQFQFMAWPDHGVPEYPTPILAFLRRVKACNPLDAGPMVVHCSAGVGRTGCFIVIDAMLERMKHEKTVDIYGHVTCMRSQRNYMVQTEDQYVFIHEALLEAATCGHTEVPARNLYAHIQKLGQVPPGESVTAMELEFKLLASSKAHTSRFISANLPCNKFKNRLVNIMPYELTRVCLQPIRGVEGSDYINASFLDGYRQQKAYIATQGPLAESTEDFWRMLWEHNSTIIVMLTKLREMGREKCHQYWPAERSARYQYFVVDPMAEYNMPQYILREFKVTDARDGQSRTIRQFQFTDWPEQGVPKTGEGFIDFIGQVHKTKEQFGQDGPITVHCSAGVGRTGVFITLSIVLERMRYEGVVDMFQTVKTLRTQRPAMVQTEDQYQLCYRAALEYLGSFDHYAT

Chain of Receptor-type tyrosine-protein phosphatase mu (P28827 whole entry): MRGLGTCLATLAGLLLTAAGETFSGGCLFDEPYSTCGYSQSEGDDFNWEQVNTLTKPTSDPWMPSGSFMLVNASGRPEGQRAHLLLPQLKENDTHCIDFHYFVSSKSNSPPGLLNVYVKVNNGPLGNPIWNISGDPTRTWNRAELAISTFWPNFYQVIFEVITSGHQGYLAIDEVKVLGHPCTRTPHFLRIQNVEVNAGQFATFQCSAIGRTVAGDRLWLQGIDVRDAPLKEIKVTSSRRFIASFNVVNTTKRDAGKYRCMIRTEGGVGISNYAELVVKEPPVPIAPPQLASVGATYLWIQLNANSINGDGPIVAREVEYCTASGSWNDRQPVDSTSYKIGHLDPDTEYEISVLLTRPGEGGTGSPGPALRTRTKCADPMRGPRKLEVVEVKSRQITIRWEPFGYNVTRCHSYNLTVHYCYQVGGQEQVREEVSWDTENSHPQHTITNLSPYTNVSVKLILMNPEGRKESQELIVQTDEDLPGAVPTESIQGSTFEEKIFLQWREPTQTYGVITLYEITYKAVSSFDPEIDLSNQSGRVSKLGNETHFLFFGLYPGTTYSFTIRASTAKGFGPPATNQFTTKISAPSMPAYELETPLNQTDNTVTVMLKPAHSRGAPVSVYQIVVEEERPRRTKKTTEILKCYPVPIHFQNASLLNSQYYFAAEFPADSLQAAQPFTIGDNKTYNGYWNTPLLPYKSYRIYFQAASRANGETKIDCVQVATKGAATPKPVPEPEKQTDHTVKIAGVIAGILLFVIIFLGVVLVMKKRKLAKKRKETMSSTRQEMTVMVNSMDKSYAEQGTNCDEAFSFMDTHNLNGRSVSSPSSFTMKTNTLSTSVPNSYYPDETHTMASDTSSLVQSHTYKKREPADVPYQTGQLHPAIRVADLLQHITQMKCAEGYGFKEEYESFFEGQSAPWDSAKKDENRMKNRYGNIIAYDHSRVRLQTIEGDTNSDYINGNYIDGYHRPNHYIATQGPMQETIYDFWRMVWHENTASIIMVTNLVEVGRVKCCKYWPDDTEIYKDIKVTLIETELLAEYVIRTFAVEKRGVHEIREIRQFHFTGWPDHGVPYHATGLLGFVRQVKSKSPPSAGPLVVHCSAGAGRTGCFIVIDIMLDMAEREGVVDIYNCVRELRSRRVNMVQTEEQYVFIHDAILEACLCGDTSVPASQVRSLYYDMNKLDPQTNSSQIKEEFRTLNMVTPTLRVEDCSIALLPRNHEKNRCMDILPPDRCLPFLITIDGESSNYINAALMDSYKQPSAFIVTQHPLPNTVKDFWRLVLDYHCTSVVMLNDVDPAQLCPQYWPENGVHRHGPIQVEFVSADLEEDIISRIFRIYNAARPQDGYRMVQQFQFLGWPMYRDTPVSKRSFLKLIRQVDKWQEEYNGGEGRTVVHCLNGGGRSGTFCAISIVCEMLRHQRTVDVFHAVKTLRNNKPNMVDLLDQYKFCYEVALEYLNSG
Chain of Receptor-type tyrosine-protein phosphatase epsilon (P23469 whole entry): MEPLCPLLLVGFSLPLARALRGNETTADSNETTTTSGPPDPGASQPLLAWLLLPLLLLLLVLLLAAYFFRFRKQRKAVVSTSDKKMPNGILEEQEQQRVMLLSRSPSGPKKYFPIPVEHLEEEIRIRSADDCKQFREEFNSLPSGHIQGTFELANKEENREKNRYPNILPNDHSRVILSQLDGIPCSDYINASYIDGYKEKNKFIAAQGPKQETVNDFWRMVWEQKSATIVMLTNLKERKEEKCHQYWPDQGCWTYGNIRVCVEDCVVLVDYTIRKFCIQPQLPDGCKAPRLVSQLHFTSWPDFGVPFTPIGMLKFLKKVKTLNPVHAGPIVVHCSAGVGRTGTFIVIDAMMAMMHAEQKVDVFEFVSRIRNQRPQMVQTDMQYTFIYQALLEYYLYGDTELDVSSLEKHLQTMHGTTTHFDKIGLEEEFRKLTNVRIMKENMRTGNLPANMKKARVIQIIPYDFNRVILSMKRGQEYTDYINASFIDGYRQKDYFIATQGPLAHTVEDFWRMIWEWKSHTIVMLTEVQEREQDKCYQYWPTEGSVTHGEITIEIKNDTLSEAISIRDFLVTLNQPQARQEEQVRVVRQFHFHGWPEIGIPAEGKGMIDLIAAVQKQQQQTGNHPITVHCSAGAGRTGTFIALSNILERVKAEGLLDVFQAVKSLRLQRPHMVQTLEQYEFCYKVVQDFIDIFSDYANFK
Chain of Tyrosine-protein phosphatase non-receptor type 6 (P29350 whole entry): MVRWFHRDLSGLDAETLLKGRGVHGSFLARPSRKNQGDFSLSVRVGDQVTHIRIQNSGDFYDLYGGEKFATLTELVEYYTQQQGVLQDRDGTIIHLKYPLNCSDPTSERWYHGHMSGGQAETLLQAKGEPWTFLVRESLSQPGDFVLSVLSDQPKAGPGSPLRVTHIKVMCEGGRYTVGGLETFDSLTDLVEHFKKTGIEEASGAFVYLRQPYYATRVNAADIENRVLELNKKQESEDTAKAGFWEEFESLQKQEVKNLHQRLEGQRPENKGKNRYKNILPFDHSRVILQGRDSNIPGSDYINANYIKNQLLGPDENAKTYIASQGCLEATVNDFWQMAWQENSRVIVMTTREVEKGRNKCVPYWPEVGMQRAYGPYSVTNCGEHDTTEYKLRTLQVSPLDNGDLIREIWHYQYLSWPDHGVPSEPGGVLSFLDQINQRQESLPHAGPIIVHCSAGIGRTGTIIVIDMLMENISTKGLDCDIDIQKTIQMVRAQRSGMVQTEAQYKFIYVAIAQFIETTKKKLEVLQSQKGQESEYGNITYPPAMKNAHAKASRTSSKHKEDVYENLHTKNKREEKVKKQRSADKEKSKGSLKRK
Chain of Dual specificity protein phosphatase 3 (P51452 whole entry): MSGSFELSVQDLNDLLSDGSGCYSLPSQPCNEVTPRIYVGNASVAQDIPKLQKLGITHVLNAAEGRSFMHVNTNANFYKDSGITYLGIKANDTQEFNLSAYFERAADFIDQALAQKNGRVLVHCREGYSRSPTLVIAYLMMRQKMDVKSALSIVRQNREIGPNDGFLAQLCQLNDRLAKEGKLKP

IC50 [1]: 20.7 µM | IC50 [2]: > 500 µM | IC50 [3]: 9.4 µM | IC50 [4]: 203 µM | IC50 [5]: 9.9 µM | IC50 [6]: 8.1 µM | IC50 [7]: 4 µM | IC50 [8]: 3.1 µM | IC50 [9]: > 500 µM | IC50 [10]: > 500 µM | IC50 [11]: > 500 µM
SMILES: CNC(=O)[C@@H]1Cc2ccc(NS(=O)(=O)O)cc2CN1C(=O)CCc1cccc(NS(=O)(=O)O)c1
